The first test concerns Escherichia coli (ATCC25922) or Staphylococcus aureus (ATCC25923). In words: Antibacterial MIC, microdilution method in Mueller-Hinton medium. Type of test: cell-based. The conditions noted are these: Escherichia coli, 18 h, MIC in E. coli or S. aureus; two-fold serial dilutions 64 to 0.5 μg/ml in duplicate; 18 hours of incubation at 35° C.; read-out: Potency (MIC). The essentials:
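Two-fold serial dilutions from 64 to 0.5 μg/ml, in duplicate, by broth microdilution in Mueller-Hinton medium (NCCLS M7-A5). MIC taken as the lowest concentration preventing visible growth after 18 h at 35° C.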
On the technique in general: Dilution methods test growth across graded concentrations, often in twofold steps.
Consider `Cl.O=C(Nc1ccc(Nc2nc(N3CCCCC3)nc(N3CCCCC3)n2)cc1Cl)c1ccc(F)c(F)c1O` [N-[3-chloro-4-(3,4-difluoro-2-hydroxy-benzoylamino)-pheny]-4,6-Bis-((3R,5S)-3,5-diamino-piperidin-1-yl)-[1,3,5]triazine-2-ammine], for which the minimum inhibitory concentration (MIC) is below 16 µg/mL.

Regarding `Cc1ccc(C(=O)Nc2ccc(Nc3nc(N4C[C@H](N)C[C@H](N)C4)nc(N4C[C@H](N)C[C@H](N)C4)n3)cc2O)c(O)c1` [N-[3-hydroxy-4-(2-hydroxy-4-methyl-benzoylamino)-phenyl]-4,6-Bis-((3R,5S)-3,5-diamino-piperidin-1-yl)-[1,3,5]triazine-2-amine], the MIC was below 16 µg/mL.

Regarding `COCCNC(=O)c1ccc(Nc2nc(N3C[C@H](N)C[C@H](N)C3)nc(N3C[C@H](N)C[C@H](N)C3)n2)cc1O` [N-[3-hydroxy-4-(2-methoxy-ethylcarbamoyl)-phenyl]-4,6-Bis-((3R,5S)-3,5-diamino-piperidin-1-yl)-[1,3,5]triazine-2-amine], the MIC is above 64 µg/mL.

Turning to `COc1cc(NC(=O)c2ccc(Nc3nc(N4CCCCC4)nc(N4CCCCC4)n3)cc2O)cc(OC)c1OC.Cl` [N-[3-hydroxy-4-(3,4,5-trimethoxy-phenylcarbamoyl)-phenyl]-4,,6-Bis-((3R,5S)-33,5-diamino-piperidin-1-yl)-[1,3,5]triazine-2-amine], the MIC was below 64 µg/mL.

`CC(C)CC(=O)Nc1ccc(Nc2nc(N3CCCCC3)nc(N3CCCCC3)n2)cc1O.Cl` [N-[3-hydroxy-4-(3-methyl-butyrylamino)-phenylk]-4,6-Bis-((3R,5S)-3,5-diamino-piperidin-1-yl)-[1,3,5]triazine-2-amine]: the minimum inhibitory concentration (MIC) is below 64 µg/mL.

Staying with this test, now noted: Escherichia coli, 18 h, read-out: Potency (MIC).
For `N[C@@H]1C[C@H](N)CN(c2nc(Nc3cccc(NC(=O)c4ccc(O)cc4O)c3)nc(N3C[C@H](N)C[C@H](N)C3)n2)C1` [N-[3-(2,4-dihydroxy-benzoylamino)-phenyl]-4,6-Bis-((3R,5S)-3,5-diamino-piperidin-1-yl)-[1,3,5]triazine-2-amine], the MIC was below 16 µg/mL.

Consider `CCn1c(-c2cccc(Nc3nc(N4C[C@H](N)C[C@H](N)C4)nc(N4C[C@H](N)C[C@H](N)C4)n3)c2)cc(=O)n1-c1ccccc1` [N-[3-(2-ethyl-5-oxo-1-phenyl-2,5-dihydro-1H-pyrazol-3-yl)-phenyl]-4,6-Bis-((3R,5S)-3,5-diamino-piperidin-1-yl)-[1,3,5]triazine-2-amine], for which the MIC is above 64 µg/mL.

As for `Cc1cccc(C(=O)Nc2cccc(Nc3nc(N4C[C@H](N)C[C@H](N)C4)nc(N4C[C@H](N)C[C@H](N)C4)n3)c2)c1O` [N-[3-(2-hydroxy-3-methyl-benzoylamino)-phenyl]-4,6-Bis-((3R,5S)-3,5-diamino-piperidin-1-yl)-[1,3,5]triazine-2-amine], the MIC is below 16 µg/mL.

For `N[C@@H]1C[C@H](N)CN(c2nc(Nc3cccc(NC(=O)c4cccc([N+](=O)[O-])c4O)c3)nc(N3C[C@H](N)C[C@H](N)C3)n2)C1` [N-[3-(2-hydroxy-3-nitro-benzoylamino)-phenyl]-4,6-Bis-((3R,5S)-3,5-diamino-piperidin-1-yl)-[1,3,5]triazine-2-amine], the minimum inhibitory concentration (MIC) is below 16 µg/mL.

In the case of `Cc1ccc(C(=O)Nc2cccc(Nc3nc(N4C[C@H](N)C[C@H](N)C4)nc(N4C[C@H](N)C[C@H](N)C4)n3)c2)c(O)c1` [N-[3-(2-hydroxy-4-methyl-benzoylamino)-phenyl]-4,6-Bis-((3R,5S)-3,5-diamino-piperidin-1-yl)-[1,3,5]triazine-2-amine], the MIC is below 64 µg/mL.

`N[C@@H]1C[C@H](N)CN(c2nc(Nc3cccc(NC(=O)c4ccc(Cl)cc4O)c3)nc(N3C[C@H](N)C[C@H](N)C3)n2)C1` [N-[3-(4-chloro-2-hydroxy-benzoylamino)-phenyl]-4,6-Bis-((3R,5S)-3,5-diamino-piperidin-1-yl)-[1,3,5]triazine-2-amine]: the MIC was below 16 µg/mL.

For the compound `N[C@@H]1C[C@H](N)CN(c2nc(Nc3ccc(NC(=O)c4ccc(Cl)cc4O)c(Br)c3)nc(N3C[C@H](N)C[C@H](N)C3)n2)C1` [N-[3-bromo-4-(4-chloro-2-hydroxy-benzoylamino)-phenyl]-4,6-Bis-((3R,5S)-3,5-diamino-piperidin-1-yl)-[1,3,5]triazine-2-amine], the minimum inhibitory concentration (MIC) is below 16 µg/mL.

For the compound `COc1cccc(C(=O)Nc2ccc(Nc3nc(N4C[C@H](N)C[C@H](N)C4)nc(N4C[C@H](N)C[C@H](N)C4)n3)cc2Cl)c1O` [N-[3-chloro-4-(2-hydroxy-3-methoxy-benzoylamino)-phenyl]-4,6-Bis-((3R,5S)-3,5-diamino-piperidin-1-yl)-[1,3,5]triazine-2-amine], the MIC is below 16 µg/mL.

Regarding `Cc1cc(Nc2nc(N3C[C@H](N)C[C@H](N)C3)nc(N3C[C@H](N)C[C@H](N)C3)n2)cc(Cl)c1NC(=O)c1ccc(Cl)cc1O` [N-[3-chloro-4-(4-chloro-2-hydroxy-benzoylamino)-5-methyl-phenyl]-4,6-Bis-((3R,5S)-3,5-diamino-piperidin-1-yl)-[1,3,5]triazine-2-amine], the MIC is below 16 µg/mL.

For `N[C@@H]1C[C@H](N)CN(c2nc(Nc3ccc(NC(=O)c4ccc(Cl)cc4O)c(Cl)c3)nc(N3C[C@H](N)C[C@H](N)C3)n2)C1` [N-[3-chloro-4-(4-chloro-2-hydroxy-benzoylamino)-phenyl]-4,6-Bis-((3R,5S)-3,5-diamino-piperidin-1-yl)-[1,3,5]triazine-2-amine], the MIC was below 16 µg/mL.

Consider `N[C@@H]1C[C@H](N)CN(c2nc(Nc3ccc(NC(=O)c4ccc(F)cc4O)c(Cl)c3)nc(N3C[C@H](N)C[C@H](N)C3)n2)C1` [N-[3-chloro-4-(4-fluoro-2-hydroxy-benzoylamino)-phenyl]-4,6-Bis-((3R,5S)-3,5-diamino-piperidin-1-yl)-[1,3,5]triazine-2-amine], for which the MIC is above 64 µg/mL.

Turning to `COc1ccc(C(=O)Nc2ccc(Nc3nc(N4C[C@H](N)C[C@H](N)C4)nc(N4C[C@H](N)C[C@H](N)C4)n3)cc2O)c(O)c1OC` [N-[3-hydroxy-4-(2-hydroxy-3,4-dimethoxy-benzoylamino)-phenyl]-4,6-Bis-((3R,5S)-3,5-diamino-piperidin-1-yl)-[1,3,5]triazine-2-amine], the MIC is below 64 µg/mL.

On to `CC(C)c1cc(C(=O)Nc2ccc(Nc3nc(N4C[C@H](N)C[C@H](N)C4)nc(N4C[C@H](N)C[C@H](N)C4)n3)cc2O)c(O)c(C(C)C)c1` [N-[3-hydroxy-4-(2-hydroxy-3,5-diisopropyl-benzoylamino)-phenyl]-4,6-Bis-((3R,5S)-3,5-diamino-piperidin-1-yl)-[1,3,5]triazine-2-amine], for which the MIC was below 16 µg/mL.

Consider `COc1cccc(C(=O)Nc2ccc(Nc3nc(N4C[C@H](N)C[C@H](N)C4)nc(N4C[C@H](N)C[C@H](N)C4)n3)cc2O)c1O` [N-[3-hydroxy-4-(2-hydroxy-3-methoxy-benzoylamino)-phenyl]-4,6-Bis-((3R,5S)-3,5-diamino-piperidin-1-yl)-[1,3,5]triazine-2-amine], for which the MIC is below 16 µg/mL.

For `Cc1cccc(C(=O)Nc2ccc(Nc3nc(N4C[C@H](N)C[C@H](N)C4)nc(N4C[C@H](N)C[C@H](N)C4)n3)cc2O)c1O` [N-[3-hydroxy-4-(2-hydroxy-3-methyl-benzoylamino)-phenyl]-4,6-Bis-((3R,5S)-3,5-diamino-piperidin-1-yl)-[1,3,5]triazine-2-amine], the MIC was below 16 µg/mL.

In the case of `COc1ccc(O)c(C(=O)Nc2ccc(Nc3nc(N4C[C@H](N)C[C@H](N)C4)nc(N4C[C@H](N)C[C@H](N)C4)n3)cc2O)c1` [N-[3-hydroxy-4-(2-hydroxy-5-methoxy-benzoylamino)-phenyl]-4,6-Bis-((3R,5S)-3,5-diamino-piperidin-1-yl)-[1,3,5]triazine-2-amine], the MIC was below 16 µg/mL.

On to `N[C@@H]1C[C@H](N)CN(c2nc(Nc3ccc(NC(=O)c4cc(OC(F)(F)F)ccc4O)c(O)c3)nc(N3C[C@H](N)C[C@H](N)C3)n2)C1` [N-[3-hydroxy-4-(2-hydroxy-5-trifluoromethoxy-benzoylamino)-phenyl]-4,6-Bis-((3R,5S)-3,5-diamino-piperidin-1-yl)-[1,3,5]triazine-2-amine], for which the MIC was below 16 µg/mL.

For the compound `COc1ccccc1C(=O)Nc1ccc(Nc2nc(N3C[C@H](N)C[C@H](N)C3)nc(N3C[C@H](N)C[C@H](N)C3)n2)cc1O` [N-[3-hydroxy-4-(2-methoxy-benzoylamino)-phenyl]-4,6-Bis-((3R,5S)-3,5-diamino-piperidin-1-yl)-[1,3,5]triazine-2-amine], the minimum inhibitory concentration (MIC) is below 16 µg/mL.

Take `N[C@@H]1C[C@H](N)CN(c2nc(Nc3ccc(C(=O)Nc4cccc(CO)c4)c(O)c3)nc(N3C[C@H](N)C[C@H](N)C3)n2)C1` [N-[3-hydroxy-4-(3-hydroxymethyl-phenylcarbamoyl)-phenyl]-4,6-Bis-((3R,5S)-3,5-diamino-piperidin-1-yl)-[1,3,5]triazine-2-amine]: the MIC was below 64 µg/mL.

As to `COc1cccc(S(=O)(=O)Nc2ccc(Nc3nc(N4C[C@H](N)C[C@H](N)C4)nc(N4C[C@H](N)C[C@H](N)C4)n3)cc2O)c1` [N-[3-hydroxy-4-(3-methoxy-benzenesulfonylamino)-phenyl]-4,6-Bis-((3R,5S)-3,5-diamino-piperidin-1-yl)-[1,3,5]triazine-2-amine], the MIC was below 64 µg/mL.

On to `N[C@@H]1C[C@H](N)CN(c2nc(Nc3ccc(C(=O)N4CCNC(=O)C4)c(O)c3)nc(N3C[C@H](N)C[C@H](N)C3)n2)C1` [N-[3-hydroxy-4-(3-oxo-piperazine-1-carbonyl)-phenyl]-4,6-Bis-((3R,5S)-3,5-diamino-piperidin-1-yl)-[1,3,5]triazine-2-amine], for which the MIC was above 64 µg/mL.

Consider `N[C@@H]1C[C@H](N)CN(c2nc(Nc3ccc(NC(=O)C=Cc4ccccc4)c(O)c3)nc(N3C[C@H](N)C[C@H](N)C3)n2)C1` [N-[3-hydroxy-4-(3-phenyl-acryloylamino)-phenyl]-4,6-Bis-((3R,5S)-3,5-diamino-piperidin-1-yl)-[1,3,5]triazine-2-amine], for which the MIC is below 16 µg/mL.

What is called MIC is the smallest concentration in the dilution series that meets the test's criterion for growth inhibition.
